The source of these data is US9365572B2, “PI3K and/or mTOR inhibitor” (XUANZHU PHARMA CO., LTD., priority 2012, dated 2016).

Molecules are shown by their SMILES.

For assay [1], the target named is Adrenergic β2 (Homo sapiens (Human), UniProt P07550). The assay can be described thus: Radioligand binding assay No. 204110. Conditions: test substance 10 μM, read-out: Inhibitory rate (%), Adrenergic β2.
Assay [2] relates to Lovo. The assay is described as follows: In vitro cytological inhibitory activity (XTT). The class given is cell-based. The note with it: Homo sapiens, 72 hrs. On the procedure: Lovo: Human colon carcinoma cell line;
(§1) 1. Preparation of agents and compounds:
(§2) • 1.1 Preparation of phosphoric acid buffering solution (PBS): 8 g NaCl, 0.2 g KCl, 1.44 g Na2HPO4 and 0.24 g KH2PO4 were weighed and added to 800 mL ultrapure water. The mixture was adjusted to pH=7.4, and ultrapure water was added to the metered volume of IL. Then the autoclaving was conducted for 20 mins. • 1.2 Preparation of XTT detection working solution: 100 mg (2,3-Bis-(2-methoxy-4-nitro-5-sulfophenyl)-2H-tetrazolium-5-carboxanilide); 2,3-bis(2-methoxy-4-nitro-5-sulfophenyl)-5-[(phenylamino)carbonyl]-2H-tetrazolium hydroxide (XTT) powder was weighed, and dissolved under protection from light 300 mL of phenol red-free and serum-free RPMI1640 culture, which had been warmed up to 50° C. The resulting mixture was filtered, packaged and used immediately or in one week. The complete process was conducted under protection from light. • 1.3 Preparation of the test compound • Preparation of the stock solution of the test compound: The test compound powder was dissolved in DMSO in a concentration of 10 mM. • Preparation of the gradiently diluted solution of the test compound: 10 mM of the stock solution of the test compound was successively and gradiently diluted with DMSO by 4 folds for 10 concentrations. […]
For orientation: Tetrazolium assays rely on reduction of a dye to a coloured formazan, in cell work by metabolically active cells.

Assay [3] deals with Glutamate, NMDA, Phencyclidine. The assay can be described thus: Radioligand binding assay No. 233000. Conditions: test substance 10 μM; rat.
The target in assay [4] is Leukotriene, Cysteinyl CysLT1 (Homo sapiens (Human), UniProt Q9Y271). The assay is described as follows: Radioligand binding assay No. 250460. Conditions: test substance 10 μM, read-out: Inhibitory rate (%), Leukotriene, Cysteinyl CysLT1.
Assay [5] has as its target Adrenergic α1B (Rattus norvegicus (Rat), UniProt P15823). The assay can be described thus: Radioligand binding assay No. 203200. The note with it: test substance 10 μM, read-out: Inhibitory rate (%), Adrenergic α1B.
For assay [6], the target named is Glutamate, NMDA, Glycine (Rattus norvegicus (Rat), UniProt P35439). The assay can be described thus: Radioligand binding assay No. 232910. Conditions: test substance 10 μM, read-out: Inhibitory rate (%), Glutamate, NMDA, Glycine.
Assay [7] concerns the target Cannabinoid CB1 (Homo sapiens (Human), UniProt P21554). The assay is described as follows: Radioligand binding assay No. 217030. The note with it: test substance 10 μM, read-out: Inhibitory rate (%), Cannabinoid CB1.
In assay [8] the test system is Thyroid Hormone. The assay is described as follows: Radioligand binding assay No. 285900. Conditions: test substance 10 μM; rat.
Assay [9] has as its target Histamine H3 (Homo sapiens (Human), UniProt Q9Y5N1). The assay can be described thus: Radioligand binding assay No. 239820. The note with it: test substance 10 μM, read-out: Inhibitory rate (%), Histamine H3.
Assay [10] addresses Dopamine D3 (Homo sapiens (Human), UniProt P35462). The assay can be described thus: Radioligand binding assay No. 219800. Conditions: test substance 10 μM, read-out: Inhibitory rate (%), Dopamine D3.
The target of assay [11] is Neuropeptide Y Y1 (Homo sapiens (Human), UniProt P25929). The assay is described as follows: Radioligand binding assay No. 257010. Conditions: test substance 10 μM, read-out: Inhibitory rate (%), Neuropeptide Y Y1.
The target in assay [12] is Endothelin ETB (Homo sapiens (Human), UniProt P24530). The assay is described as follows: Radioligand binding assay No. 224110. The note with it: test substance 10 μM, read-out: Inhibitory rate (%), Endothelin ETB.
The subject of assay [13] is Purinergic P2Y. The assay is described as follows: Radioligand binding assay No. 268810. The note with it: test substance 10 μM; rat.
Assay [14] relates to MCF-7. The assay is described as follows: In vitro cytological inhibitory activity (XTT). The class given is cell-based. The note with it: Homo sapiens, MCF7, 72 hrs. On the procedure:
MCF-7: Human breast carcinoma cell line;
as §1, §2

Assay [15] deals with Bradykinin B1 (Homo sapiens (Human), UniProt P46663). The assay is described as follows: Radioligand binding assay No. 212510. Conditions: test substance 10 μM, read-out: Inhibitory rate (%), Bradykinin B1.
Assay [16] addresses BRAF V600E (Homo sapiens (Human), UniProt P15056, V600E). The assay can be described thus: Kinase selectivity, Lanthascreen analysis method. Type of assay: biochemical.
Assay [17] relates to U87MG. The assay is described as follows: In vitro cytological inhibitory activity (XTT). Conditions: Homo sapiens, U-87 MG, 72 hrs. Type of assay: cell-based. On the procedure: U87MG: Human brain astrocytoblast cell line;
as §1, §2

Sequence of Cannabinoid CB1 (P21554 whole entry): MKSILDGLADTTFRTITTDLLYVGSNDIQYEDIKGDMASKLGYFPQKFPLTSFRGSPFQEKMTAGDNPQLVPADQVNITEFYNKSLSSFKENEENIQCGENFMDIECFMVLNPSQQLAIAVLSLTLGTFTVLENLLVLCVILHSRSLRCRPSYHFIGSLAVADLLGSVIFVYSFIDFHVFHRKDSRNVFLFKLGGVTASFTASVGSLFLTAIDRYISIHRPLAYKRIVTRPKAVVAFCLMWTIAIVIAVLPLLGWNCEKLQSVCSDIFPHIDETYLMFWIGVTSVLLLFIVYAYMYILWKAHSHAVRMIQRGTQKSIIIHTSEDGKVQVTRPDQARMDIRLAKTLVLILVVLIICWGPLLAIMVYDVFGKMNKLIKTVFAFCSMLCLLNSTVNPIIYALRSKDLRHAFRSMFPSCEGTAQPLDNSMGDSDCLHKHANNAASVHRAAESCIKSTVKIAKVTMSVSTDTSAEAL
Sequence of Leukotriene, Cysteinyl CysLT1 (Q9Y271 whole entry): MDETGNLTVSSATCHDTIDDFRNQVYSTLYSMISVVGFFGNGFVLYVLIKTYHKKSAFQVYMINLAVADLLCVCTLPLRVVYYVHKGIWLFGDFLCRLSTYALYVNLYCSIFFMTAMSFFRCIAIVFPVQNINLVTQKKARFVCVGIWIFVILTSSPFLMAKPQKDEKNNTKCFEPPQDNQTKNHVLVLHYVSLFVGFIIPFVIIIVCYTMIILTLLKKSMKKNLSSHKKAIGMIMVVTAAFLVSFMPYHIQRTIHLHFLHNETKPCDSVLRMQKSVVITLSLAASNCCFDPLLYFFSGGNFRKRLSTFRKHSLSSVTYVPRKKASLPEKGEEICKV
Sequence of Dopamine D3 (P35462 whole entry): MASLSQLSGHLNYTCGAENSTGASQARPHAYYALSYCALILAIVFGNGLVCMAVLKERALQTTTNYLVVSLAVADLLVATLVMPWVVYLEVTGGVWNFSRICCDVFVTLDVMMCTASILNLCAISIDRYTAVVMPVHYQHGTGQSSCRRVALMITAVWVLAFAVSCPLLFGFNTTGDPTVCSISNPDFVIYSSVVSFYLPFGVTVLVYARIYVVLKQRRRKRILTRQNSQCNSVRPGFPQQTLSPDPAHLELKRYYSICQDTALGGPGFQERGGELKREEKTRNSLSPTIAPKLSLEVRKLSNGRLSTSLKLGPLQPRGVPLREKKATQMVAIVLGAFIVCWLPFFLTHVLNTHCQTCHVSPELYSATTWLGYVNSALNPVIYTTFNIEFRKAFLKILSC
Sequence of Bradykinin B1 (P46663 whole entry): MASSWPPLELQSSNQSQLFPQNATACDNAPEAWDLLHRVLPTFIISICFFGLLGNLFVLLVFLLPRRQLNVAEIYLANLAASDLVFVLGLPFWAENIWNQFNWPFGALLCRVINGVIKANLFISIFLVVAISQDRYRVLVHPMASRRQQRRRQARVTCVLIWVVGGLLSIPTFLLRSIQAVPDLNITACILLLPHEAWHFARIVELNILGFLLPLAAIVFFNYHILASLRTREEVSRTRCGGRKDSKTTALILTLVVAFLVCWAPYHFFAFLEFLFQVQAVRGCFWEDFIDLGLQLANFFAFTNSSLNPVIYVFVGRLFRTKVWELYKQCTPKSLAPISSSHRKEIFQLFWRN
Sequence of Neuropeptide Y Y1 (P25929 whole entry): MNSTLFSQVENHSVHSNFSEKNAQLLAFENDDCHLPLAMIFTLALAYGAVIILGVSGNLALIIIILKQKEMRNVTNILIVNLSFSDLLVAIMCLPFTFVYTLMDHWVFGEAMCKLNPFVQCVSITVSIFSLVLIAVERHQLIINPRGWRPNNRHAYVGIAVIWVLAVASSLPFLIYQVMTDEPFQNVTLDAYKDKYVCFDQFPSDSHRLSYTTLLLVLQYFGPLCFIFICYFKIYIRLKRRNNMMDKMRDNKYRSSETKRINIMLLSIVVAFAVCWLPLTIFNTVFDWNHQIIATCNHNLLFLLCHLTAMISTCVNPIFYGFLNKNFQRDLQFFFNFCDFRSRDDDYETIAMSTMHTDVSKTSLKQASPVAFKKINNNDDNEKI
Sequence of Adrenergic α1B (P15823 whole entry): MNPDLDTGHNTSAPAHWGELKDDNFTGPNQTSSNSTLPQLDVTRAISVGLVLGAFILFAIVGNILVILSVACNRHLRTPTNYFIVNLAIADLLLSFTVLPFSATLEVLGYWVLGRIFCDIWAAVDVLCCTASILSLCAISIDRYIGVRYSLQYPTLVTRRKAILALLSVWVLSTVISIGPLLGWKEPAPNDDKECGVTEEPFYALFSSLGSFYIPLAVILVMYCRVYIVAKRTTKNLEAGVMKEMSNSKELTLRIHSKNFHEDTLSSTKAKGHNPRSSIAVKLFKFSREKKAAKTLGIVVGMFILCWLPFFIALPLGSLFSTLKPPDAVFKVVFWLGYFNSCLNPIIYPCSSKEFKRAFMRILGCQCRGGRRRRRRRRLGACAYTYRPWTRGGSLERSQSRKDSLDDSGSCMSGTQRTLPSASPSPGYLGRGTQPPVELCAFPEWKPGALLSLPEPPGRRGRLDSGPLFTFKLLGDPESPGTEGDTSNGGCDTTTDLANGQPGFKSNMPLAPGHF
Sequence of Endothelin ETB (P24530 27-442): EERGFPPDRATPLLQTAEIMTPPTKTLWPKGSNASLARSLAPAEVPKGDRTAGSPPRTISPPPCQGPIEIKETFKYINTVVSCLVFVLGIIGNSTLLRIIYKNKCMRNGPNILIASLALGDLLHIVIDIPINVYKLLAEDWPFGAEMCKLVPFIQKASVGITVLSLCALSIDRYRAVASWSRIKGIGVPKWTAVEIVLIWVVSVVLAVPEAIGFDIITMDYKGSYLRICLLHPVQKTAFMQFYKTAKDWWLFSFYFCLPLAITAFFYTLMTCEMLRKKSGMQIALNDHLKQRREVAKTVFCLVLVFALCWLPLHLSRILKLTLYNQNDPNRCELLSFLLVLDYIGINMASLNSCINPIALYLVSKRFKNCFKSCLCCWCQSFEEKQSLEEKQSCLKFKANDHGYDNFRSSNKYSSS
Sequence of Histamine H3 (Q9Y5N1 whole entry): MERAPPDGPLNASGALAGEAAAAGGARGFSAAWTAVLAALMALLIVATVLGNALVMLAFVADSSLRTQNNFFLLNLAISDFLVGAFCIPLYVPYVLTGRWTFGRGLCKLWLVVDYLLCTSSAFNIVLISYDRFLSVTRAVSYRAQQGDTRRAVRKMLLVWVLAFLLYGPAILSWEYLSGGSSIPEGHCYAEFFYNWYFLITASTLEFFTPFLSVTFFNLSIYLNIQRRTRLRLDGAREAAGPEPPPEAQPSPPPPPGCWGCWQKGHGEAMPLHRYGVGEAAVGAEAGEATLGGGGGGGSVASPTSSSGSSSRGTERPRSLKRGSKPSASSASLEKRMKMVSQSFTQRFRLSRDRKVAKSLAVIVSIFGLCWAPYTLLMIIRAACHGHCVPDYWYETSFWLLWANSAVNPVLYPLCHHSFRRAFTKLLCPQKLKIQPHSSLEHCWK
Sequence of Adrenergic β2 (P07550 whole entry): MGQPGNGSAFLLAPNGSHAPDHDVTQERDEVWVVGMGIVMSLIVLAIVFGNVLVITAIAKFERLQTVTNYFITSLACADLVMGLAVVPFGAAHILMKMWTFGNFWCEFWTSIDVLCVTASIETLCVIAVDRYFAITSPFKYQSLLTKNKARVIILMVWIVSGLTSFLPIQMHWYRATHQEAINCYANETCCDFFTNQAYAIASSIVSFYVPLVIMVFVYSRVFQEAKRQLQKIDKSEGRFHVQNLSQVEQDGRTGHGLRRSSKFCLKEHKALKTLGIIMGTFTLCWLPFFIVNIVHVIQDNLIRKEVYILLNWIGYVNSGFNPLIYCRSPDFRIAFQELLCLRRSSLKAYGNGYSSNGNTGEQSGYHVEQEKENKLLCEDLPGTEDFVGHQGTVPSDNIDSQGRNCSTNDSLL
Sequence of BRAF V600E (P15056 whole entry V600E): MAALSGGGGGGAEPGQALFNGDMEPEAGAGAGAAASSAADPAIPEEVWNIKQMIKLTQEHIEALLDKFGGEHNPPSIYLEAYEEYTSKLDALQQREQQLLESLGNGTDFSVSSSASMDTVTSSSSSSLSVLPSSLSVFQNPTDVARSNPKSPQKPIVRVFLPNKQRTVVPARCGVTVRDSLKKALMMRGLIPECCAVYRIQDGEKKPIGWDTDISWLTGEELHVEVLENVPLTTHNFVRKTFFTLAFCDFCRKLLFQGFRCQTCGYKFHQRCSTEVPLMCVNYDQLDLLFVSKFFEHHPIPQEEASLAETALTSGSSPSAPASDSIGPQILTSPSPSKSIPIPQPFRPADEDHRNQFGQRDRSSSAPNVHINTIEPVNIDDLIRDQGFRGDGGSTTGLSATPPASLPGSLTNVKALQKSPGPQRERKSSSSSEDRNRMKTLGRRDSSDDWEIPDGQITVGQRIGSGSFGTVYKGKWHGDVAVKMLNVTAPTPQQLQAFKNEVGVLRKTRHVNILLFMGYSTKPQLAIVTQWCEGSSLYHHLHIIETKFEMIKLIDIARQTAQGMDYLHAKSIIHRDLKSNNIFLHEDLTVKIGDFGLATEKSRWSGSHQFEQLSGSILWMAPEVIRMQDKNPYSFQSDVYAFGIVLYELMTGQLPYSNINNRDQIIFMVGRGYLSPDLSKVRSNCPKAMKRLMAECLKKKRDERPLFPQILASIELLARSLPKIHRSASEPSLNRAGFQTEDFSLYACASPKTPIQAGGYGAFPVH

Usually IC50 stands for the concentration that gives 50% inhibition. A high value points to a need for much substance. On to `Nc1ccc(-c2ccc3ncc4c(=O)[nH]c(=O)n(-c5cccc(C(F)(F)F)c5)c4c3n2)cn1` [Compound 5, 9-(6-aminopyridin-3-yl)-1-(3-(trifluoromethyl)phenyl)pyrimido[5,4-c][1,5]naphthyridine-2,4(1H,3H)-dione], for which the inhibition at 10 µM in assay [1] is 17%; in assay [4], -1%; in [5] it was 21%; in [6], 29%; in assay [7] it was 25%; in [9], 16%. The inhibition at 10 µM worked out at 15% in assay [10], 3% in assay [11], 7% in [12] and 0% in [15]. Also, the IC50 is 50.1 nM in assay [2], 28.2 nM in assay [14] and over 10000 nM in assay [16]. Besides, the “Inhibitory rate (%), Glutamate, NMDA, Phencyclidine” value in [3] amounted to 8%. The “Inhibitory rate (%), Thyroid Hormone” value in assay [8] is given as 9%. Also, the “Inhibitory rate (%), Purinergic P2Y” value in assay [13] was 9%.
In assay [17], `O=c1[nH]c(=O)n(-c2cccc(C(F)(F)F)c2)c2c1cnc1ccc(-c3cnc4[nH]ccc4c3)nc12` [Compound 30, 9-(1H-pyrrolo[2,3-b]pyridin-5-yl)-1-(3-(trifluoromethyl)phenyl)pyrimido[5,4-c][1,5]naphthyridine-2,4(1H,3H)-dione] returned an IC50 of 28.3 nM.
